Source: US20210323949A1, “COMPOUNDS AND METHODS FOR INHIBITION OF MULTIPLE MYELOMA” (FLORIDA ATLANTIC UNIVERSITY BOARD OF TRUSTEES, priority 2018, published 2021)

Tests used:
[1] = tested on: multiple myeloma cell lines; test: Viability/proliferation of multiple myeloma cell lines; format: cell-based; details: over 48 h
[2] = tested on: 5TGM1 luciferase expressing multiple myeloma cells; test: 5TGM1 multiple myeloma mouse model; format: in vivo, Mice (C57BL/6 KalwRij)
Description: FIG. 5A is a set of images and FIG. 5B and FIG. 5C are graphs showing the efficacy of RF-036 (MMP-13i) for the treatment of multiple myeloma. FIG. 5A, 5B: Mice (C57BL/6 KalwRij) were inoculated with 5TGM1 luciferase expressing multiple myeloma cells (1×10^6) and after 10 days randomized into vehicle (n=7) or MMP-13i (n=6) groups. Mice were treated daily with RF-036 at 2 mg/kg via intraperitoneal injection. Bioluminescence (FIG. 5A) was quantitated every 3-4 days (FIG. 5B). […] Asterisks denote statistical significance.
FIG. 7 is a Kaplan-Meier curve of overall survival time of 5TGM1 multiple myeloma bearing mice treated with RF-036 (MMP-13i) (n=6; 2 mg/kg daily) or vehicle control (n=7). The median survival time for the RF-036 group was 46 days compared to 41 for the vehicle control group.
The overall survival time of 5TGM1 multiple myeloma bearing mice treated with RF-036 (MMP-13i) (n=6; 2 mg/kg daily) was compared to vehicle control (n=7) (FIG. 7). The median survival time for the RF-036 group was 46 days compared to 41 for the vehicle control group.

[3] = tested on: bone marrow-derived macrophages (BMMs); details: bone marrow co-cultures/BMMs with M-CSF and RANKL, counted after 5 days
[4] = tested on: MSCs and monocytic cells (RAW 267); test: Proliferation of stromal cells of the bone microenvironment
mature osteoclasts = test: Inhibitor added to mature osteoclasts, TRAP-positive osteoclasts counted; details: TRAP positive osteoclasts counted after 5 days

CNC(=O)[C@@H](NC(=O)c1ccc(-c2ccc(CSc3nc4c(c(=O)[nH]3)CCC4)c(F)c2)o1)C(C)C [RF-036]
impact on viability of multiple myeloma cell lines [1]: up to 50%
IgG2b in serum (readout for tumor burden) ([2]; 2 mg/kg daily i.p., day 28, vs vehicle): significant differences between the vehicle and RF-036 groups
growth of multiple myeloma in vivo (bioluminescence) ([2]; 2 mg/kg daily, intraperitoneal injection): significantly reduces the growth of multiple myeloma
median survival time ([2]; 5TGM1 bearing mice, 2 mg/kg daily, n=6): 46 days
overall survival ([2]; multiple myeloma bearing mice, 2 mg/kg daily): increases overall survival
osteoclast formation (number of TRAP-positive osteoclasts per well) [3]: significantly mitigated osteoclast formation
effects on stromal cells (MSCs and monocytes) [4]: minimal effects
cell viability of mature osteoclasts (mature osteoclasts): no effect on cell viability
